{"source": "patent US12338219B2", "about": "“Antimalarial agents” (Merck Sharp & Dohme LLC, priority 2019, dated 2025)"}
{"test_system": "parasites (ring stage parasites, parasite growth)", "test": "Parasite LDH growth assay (Parasite Assay), antiparasite potency", "type": "cell-based", "conditions": "72 h, 72 hours growth, LDH readout; Table 3", "protocol": "(§1) Assessing Antiparasite Potency in a Parasite LDH Growth Assay (Parasite Assay) The parasite stock was maintained at […] in RPMI-Hepes media buffered with sodium bicarbonate and supplemented with […]. […] On the day of assay set up, a blood smear of the parasite culture was Giemsa stained and counted. The parasitemia was adjusted to 0.7% rings and the haematocrit was diluted to 2% in RPMI-Hepes media buffered with sodium bicarbonate and supplemented with 500 heat inactivated human serum and 0.5% albumax. 30 ul of diluted parasites are then added into 10 ul of media+compound in pre-prepared Greiner TC assay plates. Parasite assay plates were placed in gassed humidified boxes in single layer and allowed to incubate at 37° C. for 72 hours. After 72 hours growth, assay plates are sealed with parafilm and frozen flat, in single file at −80° C. overnight. On the following day, assay plates are allowed to thaw at room temperature for 4 hours to which an LDH assay is performed to measure parasite growth.", "units": {"EC50": "nM"}}
{"smiles": "CCC1(CC)CC(=O)N([C@H](c2cccnc2)[C@H]2[C@H](C(=O)N[C@H]3C[C@H](C(F)(F)F)Oc4ccccc43)C2(C)C)C(=N)N1", "note": "[Example 44B]", "EC50": 0.9}
{"smiles": "CCC1(CC)CC(=O)N(C[C@@H]2C(C)[C@H]2C(=O)N[C@H]2C[C@H](C(F)(F)F)Oc3ccccc32)C(=N)N1", "note": "(stereo partly drawn) [Example 28A]", "EC50": 12}
{"smiles": "CCC1(CC)CC(NC(=O)[C@@H]2C[C@H]2[C@@H](CCOC)N2C(=N)NC(C)(C)CC2=O)c2ccccc2O1", "note": "(stereo partly drawn) [Example 92A]", "EC50": 7.6}
{"smiles": "CC1(C)CC(=O)N([C@H](c2cccnc2)[C@@H]2C[C@H]2C(=O)N[C@@H]2c3ccccc3OC(C)(C)[C@H]2O)C(=N)N1", "note": "[Example 27]", "EC50": 78}
{"smiles": "CC1[C@@H]([C@@H](c2cccnc2)N2C(=N)NC(C)(C)CC2=O)[C@@H]1C(=O)N[C@H]1CC(C)(C)Oc2ccccc21", "note": "(stereo partly drawn) [Example 57A]", "EC50": 3.2}
{"smiles": "CC[C@]1(C)CC(=O)N([C@H](c2cncc(F)c2)[C@@H]2C[C@H]2C(=O)N[C@@H]2c3ccccc3OCC2(C)C)C(=N)N1", "note": "[Example 102A]", "EC50": 0.8}
{"smiles": "CC1(C)CC(=O)N([C@H](c2cccnc2)[C@@H]2C[C@H]2C(=O)NC2CC(C)(C)Oc3cc(F)ccc32)C(=N)N1", "note": "(stereo partly drawn) [Example 77A]", "EC50": 1.7}
{"smiles": "CC1(C)CC(=O)N([C@H](c2cccnc2)[C@@H]2C[C@H]2C(=O)N[C@H]2C[C@H](C(F)(F)F)Oc3ccccc32)C(=N)N1", "note": "[Example 32]", "EC50": 1.8}
{"smiles": "CC1(C)CC(=O)N(C[C@@H]2C[C@H]2C(=O)NC2CC(C)(C)Oc3ccc(OC(F)(F)F)cc32)C(=N)N1", "note": "(stereo partly drawn) [Example 125A]", "EC50": 231}
{"smiles": "COc1cccc2c1C(NC(=O)[C@@H]1C[C@H]1[C@@H](c1cccnc1)N1C(=N)NC(C)(C)CC1=O)CC(C)(C)O2", "note": "(stereo partly drawn) [Example 96A]", "EC50": 2.7}
{"smiles": "CC1(C)CC(=O)N(C[C@@H]2C[C@H]2C(=O)N[C@H]2CC(C)(C)Oc3cccc(OC(F)(F)F)c32)C(=N)N1", "note": "[Example 118]", "EC50": 63}
{"smiles": "CCC1(CC)CC(=O)N([C@@H](c2cccnc2)[C@H]2[C@H](C(=O)N[C@H]3CC(C)(C)Oc4ccccc43)C2(C)C)C(=N)N1", "note": "[Example 48B]", "EC50": 7.4}
{"smiles": "CC1(C)CC(=O)N(C[C@@H]2C[C@H]2C(=O)N[C@H]2CC(C)(C)Oc3cccc(Cl)c32)C(=N)N1", "note": "[Example 119]", "EC50": 26}
{"smiles": "COCC[C@H]([C@@H]1C[C@H]1C(=O)NC1CC2(CCC2)Oc2ccccc21)N1C(=N)NC(C)(C)CC1=O", "note": "(stereo partly drawn) [Example 131A]", "EC50": 6.8}
{"smiles": "CC1[C@@H]([C@H](c2cccnc2)N2C(=N)NC(C)(C)CC2=O)[C@@H]1C(=O)N[C@H]1CC(C)(C)Oc2ccccc21", "note": "(stereo partly drawn) [Example 57B]", "EC50": 100}
{"smiles": "COCC[C@H]([C@@H]1C[C@H]1C(=O)NC1CC(C)(C)Oc2c(Cl)cccc21)N1C(=N)NC(C)(C)CC1=O", "note": "(stereo partly drawn) [Example 112A]", "EC50": 18}
{"smiles": "COCC[C@H]([C@@H]1C[C@H]1C(=O)N[C@@H]1CC(C)(C)Oc2cccc(Cl)c21)N1C(=N)NC(C)(C)CC1=O", "note": "[Example 116B]", "EC50": 18}
{"smiles": "CC1(C)CC(=O)N([C@H](c2cccnc2)[C@@H]2C[C@H]2C(=O)N[C@H]2CC(C)(C)Oc3ccccc32)C(=N)N1", "note": "[Example 26]", "EC50": 4.7}
{"smiles": "CCC1(CC)CC(=O)N(CC2C(C(=O)N[C@H]3CCOc4ccccc43)C2(F)F)C(=N)N1", "note": "(stereo partly drawn) [Example 15A]", "EC50": 240}
{"smiles": "CC1(C)CC(=O)N([C@H](c2cccc(C#N)c2)[C@@H]2C[C@H]2C(=O)N[C@H]2CC(C)(C)Oc3ccccc32)C(=N)N1", "note": "[Example 50]", "EC50": 3}
{"smiles": "CCC1(CC)CC(=O)N([C@H](c2cccnc2)[C@@H]2C[C@H]2C(=O)N[C@H]2C[C@H](C(F)(F)F)Oc3ccccc32)C(=N)N1", "note": "[Example 12]", "EC50": 0.9}
{"smiles": "CC[C@]1(C)CC(=O)N([C@H](CCOC)[C@@H]2C[C@H]2C(=O)N[C@@H]2c3ccccc3OC(C)(C)[C@H]2O)C(=N)N1", "note": "[Example 61]", "EC50": 6.9}
{"smiles": "CCC1(CC)CC(=O)N(C[C@@H]2C(C)[C@H]2C(=O)NC2c3ccccc3OC2(C)C)C(=N)N1", "note": "(stereo partly drawn) [Example 36A]", "EC50": 247}
{"smiles": "COCC[C@H]([C@@H]1C[C@H]1C(=O)N[C@@H]1CC(C)(C)Oc2ccc(F)cc21)N1C(=N)NC(C)(C)CC1=O", "note": "[Example 72A]", "EC50": 11}
{"smiles": "COCC[C@H]([C@@H]1C[C@H]1C(=O)NC1CC(C)(C)Oc2c(Cl)cc(Cl)cc21)N1C(=N)NC(C)(C)CC1=O", "note": "(stereo partly drawn) [Example 106A]", "EC50": 7.4}
{"smiles": "CC[C@]1(C)CC(=O)N([C@H](CCOC)[C@@H]2C[C@H]2C(=O)NC2CC(C)(C)Oc3ccc(OC(F)(F)F)cc32)C(=N)N1", "note": "(stereo partly drawn) [Example 129A]", "EC50": 1.3}
{"smiles": "COc1cccc2c1[C@@H](NC(=O)[C@@H]1C[C@H]1CN1C(=N)NC(C)(C)CC1=O)CC(C)(C)O2", "note": "[Example 73]", "EC50": 192}
{"smiles": "COCC[C@H]([C@@H]1C[C@H]1C(=O)NC1CC(C)(C)Oc2c(F)cccc21)N1C(=N)NC(C)(C)CC1=O", "note": "(stereo partly drawn) [Example 111A]", "EC50": 24}
{"smiles": "CCC1(CC)CC(=O)N([C@H](c2cccnc2)[C@@H]2C[C@H]2C(=O)N[C@H]2c3ccccc3OC(C)(C)[C@@H]2O)C(=N)N1", "note": "[Example 11A]", "EC50": 4.1}
{"smiles": "CCC1(CC)CC(=O)N(C[C@@H]2[C@@H](C(=O)N[C@@H]3c4ccccc4OC(C)(C)[C@H]3O)C2(F)F)C(=N)N1", "note": "[Example 18B]", "EC50": 180}
{"smiles": "CCC1(CC)CC(=O)N(C[C@H]2[C@H](C(=O)N[C@H]3CC(C)(C)Oc4ccccc43)C2(C)C)C(=N)N1", "note": "[Example 34]", "EC50": 286}
{"smiles": "CCC1(CC)CC(=O)N([C@H](c2cccnc2)[C@@H]2C[C@H]2C(=O)N[C@@H]2c3ccccc3OC(C)(C)[C@H]2O)C(=N)N1", "note": "[Example 11B]", "EC50": 24}
{"smiles": "CC1(C)CC(=O)N(C[C@@H]2C[C@H]2C(=O)N[C@H]2CC(C3CC3)Oc3ccccc32)C(=N)N1", "note": "(stereo partly drawn) [Example 140A]", "EC50": 220}
{"smiles": "CCC1(CC)CC(=O)N([C@H](c2cccnc2)[C@@H]2C[C@H]2C(=O)N[C@H]2CC(C)(C)Oc3ccccc32)C(=N)N1", "note": "[Example 2, (1R,2R)-2-((S)-(4,4-diethyl-2-imino-6-oxotetrahydropyrimidin-1(2H)-yl)(pyridin-3-yl)methyl)-N—((S)-2,2-dimethylchroman-4-yl)cyclopropanecarboxamide]", "EC50": 0.9}
{"smiles": "CC1(C)CC(=O)N(C[C@@H]2C[C@H]2C(=O)N[C@H]2CC(C)(C)Oc3cccc(F)c32)C(=N)N1", "note": "[Example 87]", "EC50": 160}
{"smiles": "CCC1(CC)CC(=O)N(C[C@H]2C[C@@H]2C(=O)N[C@@H](C)c2ccccc2)C(=N)N1", "note": "[Example 3A]", "EC50": 234}
{"test_system": "parasites (ring stage parasites, parasite growth)", "test": "Parasite LDH growth assay (Parasite Assay), antiparasite potency", "type": "cell-based", "conditions": "72 hours growth, LDH readout; Table 3", "protocol": "as §1", "units": {"EC50": "nM"}}
{"smiles": "CCC1C[C@H](NC(=O)[C@@H]2C[C@H]2CN2C(=N)NC(C)(C)CC2=O)c2ccccc2O1", "note": "(single isomer, unassigned) [Example 133B]", "EC50": 100}
{"smiles": "CC(C)C1(C)CC(NC(=O)[C@@H]2C[C@H]2CN2C(=N)NC(C)(C)CC2=O)c2ccccc2O1", "note": "(single isomer, unassigned) [Example 79B]", "EC50": 275}
{"smiles": "CC(C)C1(C)CC(NC(=O)[C@@H]2C[C@H]2[C@@H](c2cccnc2)N2C(=N)NC(C)(C)CC2=O)c2ccccc2O1", "note": "(single isomer, unassigned) [Example 81A]", "EC50": 2.7}
{"smiles": "COCC[C@H]([C@@H]1C[C@H]1C(=O)NC1CC2(CCC2)Oc2ccccc21)N1C(=N)NC(C)(C)CC1=O", "note": "(stereo partly drawn) [Example 131B]", "EC50": 6.1}
{"smiles": "CCC1(CC)CC(=O)N(CC2C(C(=O)N[C@H]3CC(C)(C)Oc4ccccc43)C2(F)F)C(=N)N1", "note": "(single isomer, unassigned) [Example 16B]", "EC50": 119}
{"smiles": "COc1cccc2c1C(NC(=O)[C@@H]1C[C@H]1[C@@H](c1cccnc1)N1C(=N)NC(C)(C)CC1=O)CC(C)(C)O2", "note": "(stereo partly drawn) [Example 96B]", "EC50": 3.3}
{"smiles": "COCC[C@H]([C@@H]1C[C@H]1C(=O)N[C@@H]1C[C@@H](C(F)(F)F)Oc2ccccc21)N1C(=N)NC(C)(C)CC1=O", "note": "[Example 24C]", "EC50": 120}
{"smiles": "COCC[C@H]([C@@H]1C[C@H]1C(=O)NC1CC(C)(COC)Oc2ccccc21)N1C(=N)NC(C)(C)CC1=O", "note": "(single isomer, unassigned) [Example 82B]", "EC50": 57}
{"smiles": "CC1(C)CC(=O)N([C@H](c2cccnc2)[C@@H]2C[C@H]2C(=O)NC2CC(C)(C)Oc3ccc(F)cc32)C(=N)N1", "note": "(single isomer, unassigned) [Example 98B]", "EC50": 2.2}
{"smiles": "CC1(C)CC(=O)N(C[C@@H]2C[C@H]2C(=O)NC2CC(C)(C)Oc3ccc(OC(F)(F)F)cc32)C(=N)N1", "note": "(stereo partly drawn) [Example 125B]", "EC50": 160}
{"smiles": "COCC[C@H]([C@@H]1C[C@H]1C(=O)NC1CC(C)(C)Oc2ccc(OC(F)(F)F)cc21)N1C(=N)NC(C)(C)CC1=O", "note": "(stereo partly drawn) [Example 126B]", "EC50": 8.4}
{"smiles": "COCC[C@H]([C@@H]1C[C@H]1C(=O)NC1CC(C)(C)Oc2cc(F)ccc21)N1C(=N)NC(C)(C)CC1=O", "note": "(stereo partly drawn) [Example 76B]", "EC50": 15}
{"smiles": "COCC[C@H]([C@@H]1C[C@H]1C(=O)N[C@H]1C[C@H](C(F)(F)F)Oc2ccccc21)N1C(=N)N[C@](C)(C(C)C)CC1=O", "note": "[Example 21A]", "EC50": 260}
{"smiles": "CC1(C)CC(=O)N(C[C@@H]2C[C@H]2C(=O)NC2CC(C)(C)Oc3c(Cl)cc(Cl)cc32)C(=N)N1", "note": "(stereo partly drawn) [Example 97B]", "EC50": 220}
{"smiles": "CC1(C)CC(=O)N([C@H](c2cccnc2)[C@@H]2C[C@H]2C(=O)NC2CC(C)(C)Oc3ccc(C(F)(F)F)cc32)C(=N)N1", "note": "(single isomer, unassigned) [Example 109A]", "EC50": 2.3}
{"test_system": "parasites (ring stage parasites, parasite growth)", "test": "Parasite LDH growth assay (Parasite Assay), antiparasite potency", "type": "cell-based", "conditions": "72 hours growth, LDH readout; Table 4 (unit inferred)", "protocol": "as §1", "units": {"EC50": "nM"}}
{"smiles": "CCC1(CC)CC(=O)N([C@H](CCOC)[C@@H]2C[C@H]2C(=O)NC2CC(C)(C)Oc3cc(Cl)ccc32)C(=N)N1", "note": "(single isomer, unassigned) [Example 147A]", "EC50": 2.8}
{"smiles": "CCC1(CC)CC(=O)N([C@H](CCOC)[C@@H]2C[C@H]2C(=O)NC2CC(C)(C)Oc3cc(Cl)ccc32)C(=N)N1", "note": "(single isomer, unassigned) [Example 147B]", "EC50": 8.2}
{"smiles": "CCC1(CC)CC(=O)N(C(CC(C)OC)[C@@H]2C[C@H]2C(=O)N[C@H]2CC(C)(C)Oc3ccccc32)C(=N)N1", "note": "(single isomer, unassigned) [Example 142D]", "EC50": 115}
